The results in this text go back to patent publication US20160160189A1, “Truncated Constructs of RIPK3 and Related Uses” (ST. JUDE CHILDREN'S RESEARCH HOSPITAL, priority 2013, published 2016).

Assay [1] has as its system NIH-3T3 cells stably expressing RIPK3-1xFv. Kind of assay: TNF-induced necroptosis, IncuCyte imaging. It counts as cell-based, murine. The settings on record: recombinant TNF with zVAD; Nec1 30 μM, TNFR1-Fc 200 ng/ml. How it is done:
Expression of RIPK3-1xFv sensitized these cells to necroptosis induced by the combination of TNF and a caspase inhibitor (zVAD) in a manner analogous to that observed in Jax cells, a murine fibroblast line that expresses endogenous RIPK3. See, FIG. 13C. […]
(§1) Resulting images were analyzed using the software package supplied with the IncuCyte imager, which allows precise analysis of the number of Sytox Green or Yoyo-3 positive cells present in each image. For each experiment, a minimum of three separate wells were treated with each experimental condition, and a minimum of 4 image fields were assessed per well. Percent cell death was calculated by treating a minimum of three distinct wells in each experiment with 100 nM of the cell permeable fluorescent dye Syto Green (S7559), which allows quantification of the total number of cells present in each field. […]

Assay [2] deals with NIH-3T3 cells stably expressing DD-RIPK3. Kind of assay: Cell death of DD-RIPK3 cells, IncuCyte bioimager. It counts as cell-based, murine. The settings on record: 1 μM Shield drug.
Source text: Chimeric proteins composed of RIPK3 fused to the destabilization domain (DD)(31a) were created via recombinant PCR, to produce a fragment composed of an N-terminal FLAG tag followed by the destabilization domain, then full-length murine RIPK3 or RIPK3^K51A. These constructs were cloned into the pRRL lentiviral vector downstream of an MND promoter, and upstream of a T2A-GFP-T2A-Puromycin resistance cassette. Thus, cells transduced with these vectors produce FLAG-DD-RIPK3, GFP, and the puromycin resistance marker as separate proteins from a single mRNA, and both DD-RIPK3 and GFP carry a C terminal 2A epitope. These constructs were expressed in NIH-3T3 cells via standard helper12 dependent lentiviral transduction, and resulting cells were selected in 2 μg/ml puromycin. […]
as §1

In the case of `CN1C(=O)C(Cc2c[nH]c3ccccc23)NC1=S` (stereo not drawn) [necrostatin-1, Necrostatin-1], the “effect on TNF-induced necroptosis” value in assay [1] is on record as “blocks”. Further, the “effect of Nec1 on cell death after RIPK1 siRNA-mediated knockdown” value in assay [2] (30 μM Nec1, RIPK1 siRNA) was “eliminated”. Moreover, the “effect on cell death triggered by RIPK3 accumulation” value in assay [2] (no exogenous TNF, TNFR-Fc 200 ng/ml, Nec1 30 μM) is given as “decreased cell death”.
